US20160031909A1, “PORPHYRAZINE OPTICAL AND DUAL OPTICAL/ MR CONTRAST AND THERAPEUTIC AGENTS” (HOFFMAN/BARRETT, LLC, priority 2013, published 2016)
Where “and” joins values, the source holds several entries; their conditions need not be identical. Equal entries are not always repeated. Entries after “also recorded” stand apart in the source; their conditions may differ.

What was measured:
MDA-MB-231 cells = assay: MR imaging of cell pellets at 9.4 T; type: cell-based
Protocol: To determine whether the cellular uptake and molecular relativity of Cu-Pz-Gd(III) provides an effective MR contrast agent, MDA-MB-231 breast tumor cells were treated with M-Pz-Gd(III) complexes (200 μM) and centrifuged into capillaries (about 1.0 mm diameter) prior to MR imaging. […] The amount of Gd(III) per cell was determined by ICP-MS for each pellet and, as expected, T1 is inversely proportional to Gd(III) content. (FIG. 2B).
9.4 T MR imaging and T1/T2 measurements were performed on a Bruker Biospec 9.4 T imaging spectrometer fitted with shielded gradient coils at 25° C. For cell pellets images, about 2.0×10^6 MDA-MB-231 cells were incubated in 25-cm^2 T-flasks with either Cu-Pz-Gd(III), Zn-Pz-Gd(III) or DOTA-Gd(III) (400 μM wrt Gd(III)) for 24 hours, rinsed with DPBS (3×5 mL/flask), and harvested with 500 μL, of a 0.25-vol % trypLE Express solution. […] The bottom sections of the flame-sealed pipets were then scored with a glass scribe, broken into small capillaries, then imaged using a RF RES 400 1H 089/038 quadrature transmit receive 23-mm volume coil (Bruker BioSpin, Billerica, Mass., USA).
Spin-lattice relaxation times (T1) were measured using a […] (RARE-VTR) T1-map pulse sequence, with static TE (10 ms) and variable TR (100, 200, 400, 500, 750, 1000, 2500, 5000, 7500, and 10000 ms) values. […]

[1] = system: MDA-MB-231 orthotopic breast tumor; assay: In vivo tumor MRI in orthotopic breast tumor model; parameters: species or system athymic nude mice
Protocol: Cu-Pz-Gd(III) was examined as a contrast agent in vivo in an orthotopic breast tumor model in athymic nude mice. MDA-MB-231 breast tumor cells expressing mCherry fluorescent protein were implanted in the mammary fat pad of mice and tumors were allowed to grow to about 5 mm in diameter at which time mice were treated with 450 nmol (50 mg/kg) Cu-Pz-Gd(III) together with saline treated control mice (FIG. 3A).
In a separate experiment focusing only on short time points (0-225 min), groups of mice (n=3) were treated with Cu-Pz-Gd(III) (450 nmol, 50 mg/kg), DOTA-Gd(I I I) (900 nmol, 25 mg/kg), and saline as a negative control (FIG. 4). Mice were imaged continuously after tail vein injections. […] Regions of interest (ROIs) were defined outside the periphery of tumors, at the inner rim, and at the center.
MDA-MB-231 cells (1×10^6) expressing mCherry fluorescent protein were inoculated subcutaneously (1:1 v/v matrigel:PBS) on the right mammary fat pad. Cells were maintained in DMEM media supplemented with 10% FBS prior to inoculation. The athymic nude mice, Crl:NU(NCr)-Foxnl^nm, were purchased from Charles River, Portage at 5-6 weeks old and 16-18 gram were allowed to acclimate for 5 days. One week post inoculation, each animal was screened for mCherry fluorescence wavelength using the IVIS small animal fluorescence imaging system to verify presence of the tumor.
Mice were anesthetized in an induction chamber with 3% inhaled isoflurane in oxygen, then transferred to an imaging bed with circulating warm water heating system, MRI compatible respiratory monitoring (SA Instruments, Stony Brook, N.Y.) and 1-2% isoflurane delivered via nosecone to maintain a surgical plane of anesthesia with respiratory rate at 90-100 breaths/min Mice were imaged prone with the tumor centered in a 40 mm diameter quadrature volume coil (Bruker Biospec, Billerica, Mass.). An AutoPac automated positioning system was used to reproducibly center the animals in the MRI system.
Mice were positioned in the MRI scanner as described above and localizer images were acquired. T1 maps were acquired using a FAIR-RARE non-selective inversion recovery sequence with static TR (18,000 ms) and TE (6.1 ms), and variable TI (30.5, 100, 200, 300, 500, 600, 700, 800, 900, 1000, 1100, 1200, 1300, 1400, 1600, 2000, 2500, 3000, 3500, 4000, 4500, 5000, and 6000 ms). Imaging parameters were as follows: field of view (FOV)=40×20 mm^2, matrix size(MTX)=512×133 pixels, number of slices=1, slice thickness=1.0 mm, and 1 average (total scan time=5 m 26 s).
Images were acquired at baseline, and 4, 24, and 48 hours after injection of 150 μL of imaging agent via the tail vein. One control animal was injected with saline; the remaining 9 animals were injected with 450 nmol Cu-Pz-Gd(III). Three animals were sacrificed after 4 hour, 24 hour, and 48 hour timepoints, respectively; the organs were collected for ICP-MS (described below) to measure biodistribution.
Mice were positioned in the MRI scanner as described above and localizer images were acquired. To improve signal to noise ratio, reduce respiratory artifacts, and increase tumor coverage, for this study we used a multi slice T1 map acquired using a variable repetition time saturation recovery sequence (RARE-VTR) with static TE (8.2 ms) and variable TR (175, 300, 600, 800, 1200, 2000, 4000 ms). Imaging parameters were as follows: FOV=10×7.5 mm, MTX=80×60, number of axial slices=5, slice thickness=1.0 mm, and 1 average (total scan time=6 min 48 sec). […]

For “Cu[Pz(C19H28N8O7Gd)2]. Pz=18,21-bis(2-(1H-1,2,3-triazole-4-yl) ethoxy)-tris-[1,4-dioxino[g,l,q](2R,3R)-2,3-dimethoxy-2,3-dimethyll 25H,27H-benzo[b]porphyrazine; C19H28N8O7Gd=N-methyl-2-aminoacetamide-4,7,10-tris(carboxymethyl)-1,4,7,10-tetraazacyclododecylgadolinium(III)) [Cu-Pz-Gd(III)]”, the “MR image intensity of cell pellets” value (MDA-MB-231 cells; MDA-MB-231, 200 μM, vs Zn-Pz-Gd(III), DOTA-Gd(III) or vehicle) was “significant increases in image intensity”, the “contrast to noise ratio (CNR)” value (MDA-MB-231 cells; MDA-MB-231 cell pellets, 200 μM complex (400 μM wrt Gd(III)), 24 hours, 9.4 T, 25° C.) was 9.336±0.335 and 9.336 and the “tumor T1 over time” value ([1]; 0-225 min after tail vein injection, Cu-Pz-Gd(III) 450 nmol (50 mg/kg), DOTA-Gd(III) 900 nmol (25 mg/kg)) was “persistent; also recorded: becomes progressively shorter; also recorded: steady accumulation of Cu-Pz-Gd(III) in tumor tissue with greater accumulation in the necrotic core; also recorded: decrease in T1 is much more persistent”. The “MR contrast enhancement of tumors” value ([1]; 450 nmol (50 mg/kg), 4 hour timepoint) was “significant contrast enhancement”, the “time at which T1 of tumor center is roughly equivalent to the rim” value ([1]; 450 nmol, 50 mg/kg) was 135 min and the “average T1 of tumor regions” value ([1]; 50 mg/kg, relative to saline treated controls) was “decreased relative to saline-treated controls; also recorded: decreased relative to saline treated controls”.
